Measurements: ChEMBL document CHEMBL5154848, “Synthesis of heterocyclic ring-fused analogs of HMG499 as novel degraders of HMG-CoA reductase that lower cholesterol” (Eur J Med Chem, 2022)
Activity calls are given as the source filed them. The calls are words filed in the database; no cut-off is given here.

How the values were obtained:
[1] = Downregulation of HMGCR expression in CHO-K1 cells assessed as fold change in HMGCR expression at 1 uM incubated for 16 hrs by immunoblot analysis (reference value: 1.0); type: functional, Cricetulus griseus
[2] = molecular target: T1, 3-hydroxy-3-methylglutaryl-coenzyme A reductase (Cricetulus griseus, UniProt P00347); test: Induction of degradation of hamster HMGCR (TM1-8)-GFP (1 to 346 residues) transfected in CHO-7 cells incubated for 16 hrs in sterol-depleted medium by fluorescence based microplate reader assay; type: cell-based
T1 sequence (P00347 whole entry): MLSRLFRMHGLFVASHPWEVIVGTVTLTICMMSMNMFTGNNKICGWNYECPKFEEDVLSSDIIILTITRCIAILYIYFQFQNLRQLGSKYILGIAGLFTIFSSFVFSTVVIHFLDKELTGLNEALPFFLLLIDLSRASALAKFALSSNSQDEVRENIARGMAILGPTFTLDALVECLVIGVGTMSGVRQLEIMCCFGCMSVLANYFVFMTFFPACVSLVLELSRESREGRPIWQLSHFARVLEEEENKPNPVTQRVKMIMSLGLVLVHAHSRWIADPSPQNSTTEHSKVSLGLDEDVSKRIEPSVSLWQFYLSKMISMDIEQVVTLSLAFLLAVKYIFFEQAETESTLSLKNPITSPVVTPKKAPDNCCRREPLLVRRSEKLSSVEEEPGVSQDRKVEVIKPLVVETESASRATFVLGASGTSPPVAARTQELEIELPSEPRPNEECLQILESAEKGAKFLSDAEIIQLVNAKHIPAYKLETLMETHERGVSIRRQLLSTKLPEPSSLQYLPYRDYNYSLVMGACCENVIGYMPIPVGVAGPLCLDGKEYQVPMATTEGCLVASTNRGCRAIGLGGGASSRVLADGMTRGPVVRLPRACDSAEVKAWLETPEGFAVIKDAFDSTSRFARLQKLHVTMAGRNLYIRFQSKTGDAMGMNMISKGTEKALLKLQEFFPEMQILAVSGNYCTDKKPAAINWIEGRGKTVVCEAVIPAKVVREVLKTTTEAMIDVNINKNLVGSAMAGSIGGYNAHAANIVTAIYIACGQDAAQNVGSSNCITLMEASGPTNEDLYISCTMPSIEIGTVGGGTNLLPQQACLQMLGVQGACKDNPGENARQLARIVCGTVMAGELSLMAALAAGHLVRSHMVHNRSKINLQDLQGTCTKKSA

[3] = Downregulation of lovastatin-induced HMGCR expression in CHO-K1 cells assessed as fold change in HMGCR expression at 1 uM incubated for 16 hrs by immunoblot analysis (reference value: 15.2); type: functional, Cricetulus griseus
[4] = test system: CHO-K1; test: Downregulation of lovastatin-induced HMGCR expression in CHO-K1 cells incubated for 16 hrs by immunoblot analysis; type: functional, cell-based; settings: Cricetulus griseus, dose 1-10 µM, DDE = dose-dependent effect
[5] = test system: CHO-7; test: Growth inhibition of CHO-7 cells at 0.3 to 10 uM cultured for 7 days in sterol depleted medium in the absence of cholesterol and measured on day 8 by crystal violet staining based microscopic analysis; type: functional, cell-based; settings: Cricetulus griseus, dose 0.3-10 µM, time 8.0 day
[6] = test system: LX-2; test: Antiproliferative activity against human LX2 cells assessed as reduction of TGF-beta1 induced proliferation by CCK-8 assay; type: functional, cell-based; settings: DDE = dose-dependent effect
[7] = test system: LX-2; test: Downregulation of TGF-beta-1-induced TGF-beta-1 mRNA levels in serum starved human LX2 cells pretreated with TGF-beta-1 for 6 hrs followed by compound treatment for 24 hrs by SYBR green dye based qRT-PCR analysis; type: functional, cell-based; settings: dose <= 2.0 µM, DDE = dose-dependent effect
[8] = test system: LX-2; test: Downregulation of TGF-beta-1-induced alpha-SMA protein level in serum starved human LX2 cells pretreated with TGF-beta-1 for 6 hrs followed by compound treatment for 24 hrs by Western blot analysis; type: functional, cell-based; settings: DDE = dose-dependent effect
[9] = test system: RAW264.7; test: Downregulation of LPS-stimulated TNF-alpha mRNA levels in mouse RAW264.7 cells pretreated with LPS for 2 hrs followed by compound treatment for 24 hrs by SYBR green dye based qRT-PCR analysis; type: functional, cell-based; settings: dose <= 2.0 µM, DDE = dose-dependent effect
[10] = test system: RAW264.7; test: Downregulation of LPS-stimulated IL-1-beta mRNA levels in mouse RAW264.7 cells pretreated with LPS for 2 hrs followed by compound treatment for 24 hrs by SYBR green dye based qRT-PCR analysis; type: functional, cell-based; settings: dose <= 2.0 µM, DDE = dose-dependent effect

CC(=O)n1ncc2c1C(C)(C)C1=CC[C@H]3[C@@H]4CC[C@H]([C@H](C)CCC(=O)N5CCOCC5)[C@@]4(C)CC[C@@H]3[C@@]1(C)C2
fold change (FC) [1]: 0.3 | EC50 [2]: 220 nM | fold change (FC) [3]: 2.4 | Activity [4]: Dde | inhibition [5]: Active | Activity [6]: Dde | Activity [7]: Dde | Activity [8]: Dde | Activity [9]: Dde | Activity [10]: Dde
